Test [1] in a line: Concentration required for 50% growth inhibition of primary malignant melanoma C8146A cell lines. The format is functional, cell-based.
The target of test [2] is T1, Protein S100-B (Homo sapiens, UniProt P04271).
T1 sequence (P04271 whole entry): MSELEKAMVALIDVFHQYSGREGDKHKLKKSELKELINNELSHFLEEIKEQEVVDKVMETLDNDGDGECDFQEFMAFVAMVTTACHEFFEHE
The test is described as follows: Binding to holo-S100B protein.

Take `N=C(N)c1ccc(OCCCCCOc2ccc(C(=N)N)cc2)cc1` [PENTAMIDINE]: in test [1], 1.2 µM corresponded to half-maximal inhibition (IC50). Also, the dissociation constant Kd (commonly the free concentration of one partner at which half of the binding sites on the other are occupied at equilibrium, for simple one-to-one binding) in test [2] was found to be 1 µM.

With `O=C(O)c1cc(N/N=C/c2ccc(-c3ccc(Cl)c(C(=O)O)c3)o2)ccc1Cl`, 49 µM corresponded to half-maximal inhibition in test [1] (IC50). In test [2], this compound came in with a Kd of 18.3 µM.

As for `Cc1c(NS(=O)(=O)c2ccc(NC(=O)CCC(=O)O)cc2)c(=O)n(-c2ccccc2)n1C`, in test [1], the IC50 (commonly the concentration that gives 50% inhibition) is > 100 µM. The compound also yielded a Kd in test [2] of 4.5 µM.

`N=C(N)NC(=N)Nc1cccc(Cl)c1Cl`: the IC50 in test [1] turned out to be 8 µM. Moreover, the equilibrium dissociation constant (Kd) in test [2] came to 2 µM.

As for `Cc1cc(C)c(N2C(=O)c3ccc(C(=O)Nc4cc(C(=O)O)cc(C(=O)O)c4)cc3C2=O)c(C)c1`, half-maximal inhibition in test [1] (IC50) was put at 44 µM. The affinity in test [2], expressed as Kd, was 120 µM.

Compound `N=C(N)NC(=N)Nc1ccc(Cl)cc1C(=O)c1ccccc1` returned an IC50 in test [1] of 12 µM. In test [2], binding was put at a Kd of 4.5 µM.

`CC(C)(C)NC(=O)c1cccc(N2C(=O)c3ccc(C(=O)O)cc3C2=O)c1`: the IC50 in test [1] is > 100 µM. In test [2], the Kd is 8.1 µM.

The values are drawn from ChEMBL document CHEMBL1138776, “Identification and characterization of small molecule inhibitors of the calcium-dependent S100B-p53 tumor suppressor interaction” (J Med Chem, 2004).
